US6734190B2, “Dihydrodipyrazolopyridinylbenzamide and -sulfonamide inhibitors of B7-1” (Wyeth, priority 2002, dated 2004)

Assays:
[1] = molecular target: T1, B7-1/CD28 (Homo sapiens, UniProt P33681); assay: CD28/B7-1 ELISA (B7-1/CD28 binding inhibition); details: CD28-Fc coated wells; B7-1-Fc-biotin/streptavidin-alkaline phosphatase detection complex; 1% DMSO
T1 sequence (P33681 35-242 limits assumed): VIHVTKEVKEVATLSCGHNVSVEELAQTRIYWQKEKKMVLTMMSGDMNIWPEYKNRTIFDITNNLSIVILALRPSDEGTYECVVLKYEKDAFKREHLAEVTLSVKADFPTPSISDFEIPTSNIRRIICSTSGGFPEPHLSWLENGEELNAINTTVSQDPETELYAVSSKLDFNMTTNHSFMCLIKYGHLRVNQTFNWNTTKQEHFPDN
Procedure: Evaluation of B7-1/CD28 Binding Inhibition for Test Compounds
Wells are coated with 300 ng CD28-Fc in carbonate buffer (pH 9.4) overnight at 4° C., blocked with 1% bovine serum albumin in tris-buffered saline (TBS) for 1 h at 22° C. and washed 3 times in TBS prior to assay. The detection complex is formed as follows: B7-1-Fc-biotin, prepared using NHS-LC-biotin (Pierce #21335) according to the manufacturers instructions (4.1 moles biotinimole Fc), is added at 0.8 ug/ml to streptavidin-alkaline phosphatase (Caltag Sa1008) at 1:1000 in TBS. A solution of test compound in dimethylsulfoxide (1% final) are added to this complex and incubated 30 min at 22° C. Detection complex (+/−inhibitors) is then added to the CD28 coated wells for 25 min at 22° C., washed 5 times with TBS, developed with the colorimetric substrate pNPP (Pierce #34045) in diethanolamine/MgCl2 buffer (pH 9.5) and read at 405 nm. The inhibition constant (IC50) is calculated by subtracting background binding and comparing to uninhibited (DMSO alone) controls. The inhibition constant represents the concentration of test compound required to achieve 50% inhibition.

| IC50 [1] [nM] | melting point | SMILES |
| --- | --- | --- |
| 57 | 183 °C (dec.) | Cn1ncc2c3[nH]n(-c4cccc(C(=O)NCc5ccc(N)cc5)c4)c(=O)c3c(-c3cccc(C(F)(F)F)c3)nc21 [Example 16] |
| 9 | 177.7 to 179.8 °C | Cn1ncc2c3[nH]n(-c4cccc(C(=O)NCc5ccc(O)c(O)c5)c4)c(=O)c3c(-c3cccc(C(F)(F)F)c3)nc21 [Example 18, N-(3,4-dihydroxybenzyl)-3-(6-methyl-3-oxo-4-[3-(trifluoromethyl)phenyl]-3,6-dihydrodipyrazolo[3,4-b:3,4-d]pyridin-2(1H)-yl)benzamide] |
| 20 | 199 to 202 °C | Cn1ncc2c3[nH]n(-c4cccc(C(=O)N5CCC[C@@H]5C(=O)O)c4)c(=O)c3c(-c3cccc(C(F)(F)F)c3)nc21 [Example 13, (2R)-1-[3-(6-methyl-3-oxo-4-[3-(trifluoromethyl)phenyl]-3,6-dihydrodipyrazolo[3,4-b:3,4-d]pyridin-2(1H)-yl)benzoyl]-2-pyrrolidinecarboxylic acid] |
| 88 | 280 °C (dec.) | Cn1ncc2c3[nH]n(-c4ccc(C(=O)NCCCCO)cc4)c(=O)c3c(-c3cccc(C(F)(F)F)c3)nc21 [Example 37] |
| 310 | 176 to 179 °C | Cn1ncc2c3[nH]n(-c4ccc(C(=O)N5CCOCC5)c(F)c4)c(=O)c3c(-c3cccc(C(F)(F)F)c3)nc21 [Example 30] |
| 140 | 234.5 to 236 °C | Cn1ncc2c3[nH]n(-c4ccc(C(=O)NCCCCCN)cc4)c(=O)c3c(-c3cccc(C(F)(F)F)c3)nc21 [Example 39] |
| 90 | 187 °C (dec.) | COC(=O)C1CCN(C(=O)c2ccc(-n3[nH]c4c(c(-c5cccc(C(F)(F)F)c5)nc5c4cnn5C)c3=O)cc2)CC1 [Example 26] |
| 79 | 189 to 192 °C | Cn1ncc2c3[nH]n(-c4ccc(C(=O)NCc5ccccc5)cc4)c(=O)c3c(-c3cccc(C(F)(F)F)c3)nc21 [Example 32] |
| 300 | 298 °C (dec.) | Cn1ncc2c3[nH]n(-c4ccc(C(=O)Nc5cccc6c5CCCC6O)cc4)c(=O)c3c(-c3cccc(C(F)(F)F)c3)nc21 (stereo not shown) [Example 43] |
| 55 | 172 to 176 °C | COc1cc(CNC(=O)c2cccc(-n3[nH]c4c(c(-c5cccc(C(F)(F)F)c5)nc5c4cnn5C)c3=O)c2)ccc1O [Example 17] |
| 44 | 214 to 218 °C | Cn1ncc2c3[nH]n(-c4ccc(Cl)c(C(=O)N5CCC[C@@H]5C(=O)O)c4)c(=O)c3c(-c3cccc(C(F)(F)F)c3)nc21 [Example 22, 1-{2-chloro-5-[6-methyl-3-oxo-4-[3-(trifluoromethyl)pheny]-3,6-dihydrodipyrazolo[3,4-b:3′,4′-d]pyridin-2(1H)-yl]benzoyl}-D-proline] |
| 98 | 193 to 195 °C | Cn1ncc2c3[nH]n(-c4ccc(C(=O)NCCCO)cc4)c(=O)c3c(-c3cccc(C(F)(F)F)c3)nc21 [Example 28] |
| 1000 | – | CC(O)c1cccc(NC(=O)c2cc(-n3[nH]c4c(c(-c5cccc(C(F)(F)F)c5)nc5c4cnn5C)c3=O)ccc2F)c1 (stereo not shown) [Example 65] |
| 92 | – | CC1CCCN(C(=O)c2cccc(-n3[nH]c4c(c(-c5cccc(C(F)(F)F)c5)nc5c4cnn5C)c3=O)c2)C1 (stereo not shown) [Example 57] |
| 94 | 220 to 222 °C | COC(=O)c1cccc(NC(=O)c2ccc(-n3[nH]c4c(c(-c5cccc(C(F)(F)F)c5)nc5c4cnn5C)c3=O)cc2)c1 [Example 42] |
| 270 | – | COC(=O)[C@H]1CCCN1C(=O)c1cccc(-n2[nH]c3c(c(-c4cccc(C(F)(F)F)c4)nc4c3cnn4C)c2=O)c1 [Example 53] |
| 340 | – | COC(=O)CNS(=O)(=O)c1ccc(-n2[nH]c3c(c(-c4cccc(C(F)(F)F)c4)nc4c3cnn4C)c2=O)cc1 [Example 105, methyl ({[4-(6-methyl-3-oxo-4-[3-(trifluoromethyl)phenyl]-3,6-dihydrodipyrazolo[3,4-b:3,4-d]pyridin-2(1H)-yl)phenyl]sulfonyl}amino)acetate] |
| 23 | 186 to 189 °C | Cn1ncc2c3[nH]n(-c4ccc(C(=O)Nc5ccc(CCO)cc5)cc4)c(=O)c3c(-c3cccc(C(F)(F)F)c3)nc21 [Example 34] |
| 380 | – | Cn1ncc2c3[nH]n(-c4ccc(F)c(C(=O)Nc5ccc(CCO)cc5)c4)c(=O)c3c(-c3cccc(C(F)(F)F)c3)nc21 [Example 62] |
| 63 | – | COC(=O)c1cn(C(=O)c2cccc(-n3[nH]c4c(c(-c5cccc(C(F)(F)F)c5)nc5c4cnn5C)c3=O)c2)c2ccccc12 [Example 15] |

| IC50 [1] [nM] | melting point | SMILES |
| --- | --- | --- |
| 11 | – | Cn1ncc2c3[nH]n(-c4ccc(C(=O)Nc5ccc(O)cc5)cc4)c(=O)c3c(-c3cccc(C(F)(F)F)c3)nc21 [Example 73] |
| 43 | – | Cn1ncc2c3[nH]n(-c4ccc(Cl)c(C(=O)N5CCC[C@@H]5CO)c4)c(=O)c3c(-c3cccc(C(F)(F)F)c3)nc21 [Example 23, 2-(4-chloro-3-{[(2R)-2-(hydroxymethyl)pyrrolidin-1-yl]carbonyl}phenyl)-6-methyl-4-[3-(trifluoromethyl)phenyl]-1,6-dihydrodipyrazolo[3,4-b:3,4-d]pyridin-3(2H)-one] |
| 440 | – | CCOC(=O)c1cccc(NC(=O)c2cccc(-n3[nH]c4c(c(-c5cccc(C(F)(F)F)c5)nc5c4cnn5C)c3=O)c2)c1 [Example 48] |
| 80 | – | Cn1ncc2c3[nH]n(-c4cccc(C(=O)NCC5CC5)c4)c(=O)c3c(-c3cccc(C(F)(F)F)c3)nc21 [Example 12] |
| 110 | – | CCN(CC)C(=O)C1CCCN(C(=O)c2cccc(-n3[nH]c4c(c(-c5cccc(C(F)(F)F)c5)nc5c4cnn5C)c3=O)c2)C1 (stereo not shown) [Example 58] |
| 90 | – | Cc1c(CO)cccc1NC(=O)c1ccc(-n2[nH]c3c(c(-c4cccc(C(F)(F)F)c4)nc4c3cnn4C)c2=O)cc1 [Example 84] |
| 300 | – | Cn1ncc2c3[nH]n(-c4cccc(C(=O)N5CCc6ccccc6C5)c4)c(=O)c3c(-c3cccc(C(F)(F)F)c3)nc21 [Example 52] |
| 67 | – | Cn1ncc2c3[nH]n(-c4ccc(C(=O)NCc5ccc(F)cc5)cc4)c(=O)c3c(-c3cccc(C(F)(F)F)c3)nc21 [Example 91] |
| 330 | – | CN(CCC#N)C(=O)c1cccc(-n2[nH]c3c(c(-c4cccc(C(F)(F)F)c4)nc4c3cnn4C)c2=O)c1 [Example 61] |
| 280 | – | Cn1ncc2c3[nH]n(-c4cccc(C(=O)Nc5ccc(F)c(F)c5)c4)c(=O)c3c(-c3cccc(C(F)(F)F)c3)nc21 [Example 47] |
| 180 | – | COCCCNC(=O)c1cccc(-n2[nH]c3c(c(-c4cccc(C(F)(F)F)c4)nc4c3cnn4C)c2=O)c1 [Example 63] |
| 670 | – | Cn1ncc2c3[nH]n(-c4ccc(S(=O)(=O)NCCCCCO)cc4)c(=O)c3c(-c3cccc(C(F)(F)F)c3)nc21 [Example 102, N-(5-Hydroxypentyl)-4-{6-methyl-3-oxo-4-[3-(trifluoromethyl)phenyl]-3,6-dihydrodipyrazolo[3,4-b:3′,4′-d]pyridin-2(1H)-yl}benzenesulfonamide] |
| 61 | – | CN(CCO)C(=O)c1cccc(-n2[nH]c3c(c(-c4cccc(C(F)(F)F)c4)nc4c3cnn4C)c2=O)c1 [Example 14] |
| 180 | – | Cn1ncc2c3[nH]n(-c4ccc(C(=O)Nc5cccnc5)cc4)c(=O)c3c(-c3cccc(C(F)(F)F)c3)nc21 [Example 79] |
| 1500 | – | Cn1ncc2c3[nH]n(-c4ccc(S(=O)(=O)NCc5ccccc5)cc4)c(=O)c3c(-c3cccc(C(F)(F)F)c3)nc21 [Example 103, N-benzyl-4-[6-methyl-3-oxo-4-(3-trifluoromethyl-phenyl)-3,6-dihydro-1H-1,2,5,6,7-pentaaza-as-indacen-2-yl]-benzenesulfonamide] |
| 110 | – | Cn1ncc2c3[nH]n(-c4ccc(C(=O)N5CCCC5)cc4)c(=O)c3c(-c3cccc(C(F)(F)F)c3)nc21 [Example 81] |
| 45 | – | CC(O)CNC(=O)c1cccc(-n2[nH]c3c(c(-c4cccc(C(F)(F)F)c4)nc4c3cnn4C)c2=O)c1 (stereo not shown) [Example 19, N-(2-hydroxypropyl)-3-(6-methyl-3-oxo-4-[3-(trifluoromethyl)phenyl]-3,6-dihydrodipyrazolo[3,4-b:3,4-d]-pyridin-2(1H)-yl)benzamide] |
| 150 | – | Cn1ncc2c3[nH]n(-c4cccc(C(=O)NCCOCCOCCN)c4)c(=O)c3c(-c3cccc(C(F)(F)F)c3)nc21 [Example 46] |
| 110 | – | Cn1ncc2c3[nH]n(-c4ccc(C(=O)N5CCSC5)cc4)c(=O)c3c(-c3cccc(C(F)(F)F)c3)nc21 [Example 83] |
| 180 | – | COC(=O)[C@H]1CCCN1C(=O)c1cc(-n2[nH]c3c(c(-c4cccc(C(F)(F)F)c4)nc4c3cnn4C)c2=O)ccc1Cl [Example 64] |

| SMILES | IC50 [1] [nM] | melting point |
| --- | --- | --- |
| Cn1ncc2c3[nH]n(-c4ccc(C(=O)Nc5ccccc5O)cc4)c(=O)c3c(-c3cccc(C(F)(F)F)c3)nc21 [Example 74, N-(2-hydroxyphenyl)-4-{6-methyl-3-oxo-3-[3-(trfluoromethyl)phenyl]-3,6-dihydrodipyrazolo[3,4-b:3′,4′-d]pyridin-2(1H)-yl}benzamide] | 17 | – |
